In patent publication US8563027B2, “Drug delivery through hydrogel plugs” (Incept, LLC, priority 2009, dated 2013):
Converted amounts (≈) assume the structure as drawn. Read-outs that look alike come from different tables or passages of the source.

Legend:
[1] = cited from earlier work
[2] = In vitro release of steroids entrapped in hydrogel compared to free drug in PBS; format: physicochemical; details: 9% 4a20KSG hydrogel, FIG. 20
Procedure: A 9% 4a20KSG hydrogel was prepared incorporating three different steroids (flunisolide, budesonide, and triamcinolone acetonide).

Structure (SMILES): Cc1ccc(-c2cc(C(F)(F)F)nn2-c2ccc(S(N)(=O)=O)cc2)cc1 [Celecoxib]
- Solubility [1]: 0.005 mg/mL (≈ 13.1 µM)

Structure (SMILES): O=C(O)c1cc(-c2ccc(F)cc2F)ccc1O [Diflunisal]
- Solubility ([1]; pH 7): 3.43 mg/ml @ pH 7

Structure (SMILES): CCc1cccc2c3c([nH]c12)C(CC)(CC(=O)O)OCC3 (stereo not shown) [Etodolac]
- Solubility ([1]; in water): Insoluble in water

Structure (SMILES): CC(C(=O)[O][Ca][O]C(=O)C(C)c1cccc(Oc2ccccc2)c1)c1cccc(Oc2ccccc2)c1 (stereo not shown) [Fenoprofen Calcium]
- Solubility ([1]; in water): Slightly soluble in water

Structure (SMILES): CC(C(=O)O)c1ccc(-c2ccccc2)c(F)c1 (stereo not shown) [Flurbiprofen]
- Solubility [1]: 0.9 mg/mL (≈ 3680 µM)

Structure (SMILES): CC(C)Cc1ccc(C(C)C(=O)O)cc1 (stereo not shown) [Ibuprofen]
- Solubility ([1]; pH 7): 10 mg/ml @ pH 7

Structure (SMILES): COc1ccc2c(c1)c(CC(=O)O)c(C)n2C(=O)c1ccc(Cl)cc1 [Indomethacin]
- Solubility ([1]; pH 7, Form I): 0.54 mg/mL (≈ 1510 µM)
- Solubility ([1]; pH 7, Form II): 0.80 mg/mL (≈ 2240 µM)

Structure (SMILES): O=C(c1ccccc1)c1ccc2n1CCC2C(=O)O (stereo not shown) [Ketorolac]
- Solubility ([1]; in IPB): 10.5 mg/mL (≈ 41100 µM)

Structure (SMILES): CC(C)OC(=O)CCC/C=C\C[C@@H]1[C@@H](CC[C@@H](O)CCc2ccccc2)[C@H](O)C[C@@H]1O [Latanoprost]
- Solubility in aqueous solutions [1]: relatively low solubility

Structure (SMILES): Cc1ccc(Cl)c(Nc2ccccc2C(=O)[O-])c1Cl.[Na+] [Meclofenamate sodium]
- Solubility ([1]; pH 7.2): <50 μg/mL @ pH 7.2 50 mg/mL @ pH 9.0
- Solubility ([1]; pH 9.0): <50 μg/mL @ pH 7.2 50 mg/mL @ pH 9.0

Structure (SMILES): Cc1cccc(Nc2ccccc2C(=O)[O-])c1C.[Na+] [Mefanamic Acid]
- Solubility ([1]; pH 7.1): 40 μg/ml @ pH 7.1

Structure (SMILES): COc1c(N2C[C@@H]3CCCN[C@@H]3C2)c(F)cc2c(=O)c(C(=O)O)cn(C3CC3)c12 [Moxifloxacin]
- Solubility in aqueous solutions [1]: readily soluble

Structure (SMILES): NC(=O)Cc1cccc(C(=O)c2ccccc2)c1N [Nepafenac]
- Solubility [1]: <1 mg/ml (The drug is available as 0.1% suspension)

Structure (SMILES): CC1(C)O[C@@H]2C[C@H]3[C@@H]4C[C@H](F)C5=CC(=O)C=C[C@]5(C)[C@H]4[C@@H](O)C[C@]3(C)[C@]2(C(=O)CO)O1 [flunisolide]
- Release profile in hydrogel compared to free drug in PBS [2]: slower more sustained drug release profile
